Laboratory results reported in patent US9701670B2, “Pyrazolyl-ureas as kinase inhibitors” (RESPIVERT LIMITED, priority 2013, dated 2017).

What was measured:
[1] = test system: Differentiated U937 cells; assay: (l) Cell viability: MTT assay; format: cell-based, human; conditions: 1 μg/mL
Summary of the method: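 Differentiated U937 cells were exposed to compound at 1 or 10 μg/mL either 4 h in 5% FCS RPMI1640 or 24 h in 10% FCS RPMI1640, then given MTT for 1 h, DMSO-solubilised and read at 550 nm. Percent viability loss versus 0.5% DMSO vehicle; apparent gains appear negative.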

[2] = target: T1, p38 MAPKα isoform (MAPK14) (Homo sapiens (Human), UniProt Q16539); assay: p38 MAPKα enzyme inhibition (FRET, Z-LYTE), Method 1; format: biochemical; conditions: Method 1 (Table 4a1)
T1 sequence (Q16539 whole entry, canonical isoform): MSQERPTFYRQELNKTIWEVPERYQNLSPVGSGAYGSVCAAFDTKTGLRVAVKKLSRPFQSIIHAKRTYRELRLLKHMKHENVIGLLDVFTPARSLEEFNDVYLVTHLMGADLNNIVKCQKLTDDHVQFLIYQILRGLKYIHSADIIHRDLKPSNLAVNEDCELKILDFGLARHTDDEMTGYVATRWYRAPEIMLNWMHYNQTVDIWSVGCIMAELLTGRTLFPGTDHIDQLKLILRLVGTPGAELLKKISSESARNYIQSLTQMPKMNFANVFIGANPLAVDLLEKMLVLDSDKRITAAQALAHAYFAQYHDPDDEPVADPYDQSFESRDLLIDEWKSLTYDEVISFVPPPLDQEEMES

[3] = target: T1, p38 MAPKα isoform (MAPK14); assay: p38 MAPKα enzyme inhibition (FRET, Z-LYTE), Method 2; format: biochemical; conditions: Method 2, different laboratory (Table 4a2)
Method: The enzyme inhibitory activities of compounds disclosed herein are determined by FRET using synthetic peptides labelled with both donor and acceptor fluorophores (Z-LYTE, Invitrogen Ltd., Paisley, UK).
The inhibitory activities of test compounds against the p38 MAPKα isoform (MAPK14: Invitrogen), are evaluated indirectly by determining the level of activation/phosphorylation of the down-stream molecule, MAPKAP-K2. The p38 MAPKα protein (80 ng/mL, 2.5 μL) is mixed with the test compound (2.5 μL of either 4 μg/mL, 0.4 μg/mL, 0.04 μg/mL or 0.004 μg/mL) for 2 hr at RT. […] The mixture is incubated for 1 hr at RT. Development reagent (protease, 5 μL) is added for 1 hr prior to detection in a fluorescence microplate reader (Varioskan® Flash, ThermoFisher Scientific).
In all cases, the site-specific protease cleaves non-phosphorylated peptide only and eliminates the FRET signal. Phosphorylation levels of each reaction are calculated using the ratio of coumarin emission (donor) over fluorescein emission (acceptor), for which high ratios indicate high phosphorylation and low ratios indicate low phosphorylation levels.

[4] = test system: β-catenin in d-U937 cells; assay: (m) Accumulation of β catenin in d-U937 cells; format: cell-based, human
Method: U937 cells, a human monocytic cell line, are differentiated into macrophage-type cells by incubation with PMA; (100 ng/mL) for between 48 to 72 hr. The cells are then incubated with either final concentrations of test compound or vehicle for 18 hr. The induction of β-catenin by the test compounds is stopped by replacing the media with 4% formaldehyde solution. Endogenous peroxide activity is neutralised by incubating with quenching buffer (100 μL, 0.1% sodium azide, 1% H2O2 in PBS with 0.05% Tween-20) for 20 min. The cells are washed with washing buffer (200 μL; PBS containing 0.05% Tween-20) and incubated with blocking solution (200 μL; 5% milk in PBS) for 1 hr, re-washed with washing buffer (200 μL) and then incubated overnight with anti-β-catenin antibody solution (50 μL) in 1% BSA/PBS (BD, Oxford, UK).
After washing with washing buffer (3×200 μL; PBS containing 0.05% Tween-20), cells are incubated with an HRP-conjugated secondary antibody solution (100 μL) in 1% BSA/PBS (Dako, Cambridge, UK) and the resultant signal is determined colourimetrically (OD: 450 nm with a reference wavelength of 655 nm) using TMB substrate (50 μL; R&D Systems, Abingdon, UK). This reaction is stopped by addition of 1N H2SO4 solution (50 μL). Cells are then washed with washing buffer and 2% crystal violet solution (50 μL) is applied for 30 min. After washing with washing buffer (3×200 μL), 1% SDS (100 μL) is added to each well and the plates are shaken lightly for 1 hr prior to measuring the absorbance at 595 nm (Varioskan® Flash, Thermo-Fisher Scientific).
The measured OD450-655 readings are corrected for cell number by dividing the OD450-655 by the OD595 readings. […] A signal less than 0.15 (15%) of that observed for the standard control is designated as “-ve”.

mice = assay: Mouse cigarette smoke model (macrophage and neutrophil accumulation in BALF); format: in vivo; conditions: cigarette smoke model, 1.75 μg/mouse (35 μL, bid, i.n.)
From the text: The result of treatment with compound Example (8) on macrophage and neutrophil accumulation in BALF in the mouse cigarette smoke model was investigated (Table 5).

Balb/c mice = assay: (A) LPS-induced neutrophil accumulation in mice; format: in vivo, mouse; conditions: 1.75 μg/mouse
Method: […] At T=0, mice are placed into an exposure chamber and exposed to LPS (7.0 mL, 0.5 mg/mL solution in PBS) for 30 min). After a further 8 hr the animals are anesthetized, their tracheas cannulated and BALF extracted by infusing and then withdrawing from their lungs 1.0 mL of PBS via the tracheal catheter. Total and differential white cell counts in the BALF samples are measured using a Neubaur haemocytometer. Cytospin smears of the BALF samples are prepared by centrifugation at 200 rpm for 5 min at RT and stained using a DiffQuik stain system (Dade Behring). Cells are counted using oil immersion microscopy. Data for neutrophil numbers in BAL are shown as mean±S.E.M. (standard error of the mean). The percentage inhibition of neutrophil accumulation is calculated for each treatment relative to vehicle treatment.

SMILES	IC50 [3] [nM]	% β-catenin induction ([4]; 1 μg/mL test compound) [%]	% β-catenin induction ([4]; 5 μg/mL test compound) [%]	also measured
COc1cc(Nc2cc(Oc3ccc(NC(=O)Nc4cc(C(C)(C)C)nn4-c4ccc(C)cc4)c4ccccc34)ncn2)cc(C(=O)NCCN2CCOCC2)c1 [Example 72, 3-((6-((4-(3-(3-(tert-butyl)-1-(p-tolyl)-1H-pyrazol-5-yl)ureido)naphthalen-1-yl)oxy)pyrimidin-4-yl)amino)-5-methoxy-N-(2-morpholinoethyl)benzamide]				Cell viability at time point in d-U937 cells 4 h [1]: −ve (−ve and +ve indicate that the value is below and above respectively, the no significant effect threshold, defined as 30% inhibition at 1 μg/mL at the time point indicated.); Cell viability at time point in d-U937 cells 24 h [1]: −ve (−ve and +ve indicate that the value is below and above respectively, the no significant effect threshold, defined as 30% inhibition at 1 μg/mL at the time point indicated.); IC50 [2]: < 1 nM
C#Cc1cc(Nc2nccc(Oc3ccc(NC(=O)Nc4cc(C(C)(C)C)nn4-c4ccc(OC)nc4)c4ccccc34)n2)cc(C(=O)NCCN2CCOCC2)c1 [Example 73, 3-((4-((4-(3-(3-(tert-Butyl)-1-(6-methoxypyridin-3-yl)-1H-pyrazol-5-yl)ureido)naphthalen-1-yl)oxy)pyrimidin-2-yl)amino)-5-ethynyl-N-(2-morpholinoethyl)benzamide]	47	17	−7	% β-catenin induction ([4]; 10 μg/mL test compound): 7%
C#Cc1cc(Nc2nccc(Oc3ccc(NC(=O)Nc4cc(C(C)(C)C)nn4-c4ccc(C)cc4)c4ccccc34)n2)cc(C(=O)NCCN2CCOCC2)c1 [Example 75, 3-((4-((4-(3-(3-(tert-Butyl)-1-(p-tolyl)-1H-pyrazol-5-yl)ureido)naphthalen-1-yl)oxy)pyrimidin-2-yl)amino)-5-ethynyl-N-(2-morpholinoethyl)benzamide]	49	−14	−10	
C#Cc1cc(Nc2nccc(Oc3ccc(NC(=O)Nc4cc(C(C)(C)C(F)(F)F)nn4-c4ccc(C)cc4)c4ccccc34)n2)cc(C(=O)NCCN2CCOCC2)c1 [Example 76, 3-Ethynyl-N-(2-morpholinoethyl)-5-((4-((4-(3-(1-(p-tolyl)-3-(1,1,1-trifluoro-2-methylpropan-2-yl)-1H-pyrazol-5-yl)ureido)naphthalen-1-yl)oxy)pyrimidin-2-yl)amino)-benzamide]	233	−3	−1	
C#Cc1cc(Nc2nccc(Oc3ccc(NC(=O)Nc4cc(C(C)(C)C#N)nn4-c4ccc(C)cc4)c4ccccc34)n2)cc(C(=O)NCCN2CCOCC2)c1 [Example 78, 3-((4-((4-(3-(3-(2-Cyanopropan-2-yl)-1-(p-tolyl)-1H-pyrazol-5-yl)ureido)-naphthalen-1-yl)oxy)pyrimidin-2-yl)amino)-5-ethynyl-N-(2-morpholinoethyl)benzamide]		9	0	
C#Cc1cc(Nc2nccc(Oc3ccc(NC(=O)Nc4cc(C(C)(C)C)nn4-c4ccc(C)cc4)c4ccccc34)n2)cc(C(=O)N[C@@H](C)CN2CCOCC2)c1 [Example 81, (S)-3-((4-((4-(3-(3-(tert-Butyl)-1-(p-tolyl)-1H-pyrazol-5-yl)ureido)naphthalen-1-yl)oxy)pyrimidin-2-yl)amino)-5-ethynyl-N-(1-morpholinopropan-2-yl)benzamide]	138	3	−3	
C#Cc1cc(Nc2nccc(Oc3ccc(NC(=O)Nc4cc(C(C)(C)C)nn4-c4ccc(C)cc4)c4ccccc34)n2)cc(C(=O)NC(C)(C)CN2CCOCC2)c1 [Example 82, 3-((4-((4-(3-(3-(tert-Butyl)-1-(p-tolyl)-1H-pyrazol-5-yl)ureido)naphthalen-1-yl)oxy)pyrimidin-2-yl)amino)-5-ethynyl-N-(2-methyl-1-morpholinopropan-2-yl)-benzamide]		0	9	
C#Cc1cc(Nc2nccc(Oc3ccc(NC(=O)Nc4cc(C(C)(C)C)nn4-c4ccc(C)cc4)c4ccccc34)n2)cc(C(=O)N[C@H](C)CN2CCOCC2)c1 [Example 83, (R)-3-((4-((4-(3-(3-(tert-Butyl)-1-(p-tolyl)-1H-pyrazol-5-yl)ureido)naphthalen-1-yl)oxy)pyrimidin-2-yl)amino)-5-ethynyl-N-(1-morpholinopropan-2-yl)benzamide]	261	−3	−6	
C#Cc1cc(Nc2nccc(Oc3ccc(NC(=O)Nc4cc(C(C)(C)C)nn4-c4ccc(OC)cc4)c4ccccc34)n2)cc(C(=O)N[C@@H](C)COC)c1 [Example 85, (S)-3-((4-((4-(3-(3-(tert-Butyl)-1-(4-methoxyphenyl)-1H-pyrazol-5-yl)ureido)-naphthalen-1-yl)oxy)pyrimidin-2-yl)amino)-5-ethynyl-N-(1-methoxypropan-2-yl)-benzamide]	158	7	3	% β-catenin induction ([4]; 10 μg/mL test compound): 6%
C=C(C)c1cc(NC(=O)Nc2ccc(Oc3ccnc(Nc4cc(OC)cc(C(=O)NCCN5CCOCC5)c4)n3)c3ccccc23)n(-c2ccc(OC)cc2)n1 [Example 86, 3-Methoxy-5-((4-((4-(3-(1-(4-methoxyphenyl)-3-(prop-1-en-2-yl)-1H-pyrazol-5-yl)ureido)naphthalen-1-yl)oxy)pyrimidin-2-yl)amino)-N-(2-morpholinoethyl)-benzamide]				Cell viability at time point in d-U937 cells 4 h [1]: −ve (−ve and +ve indicate that the value is below and above respectively, the no significant effect threshold, defined as 30% inhibition at 1 μg/mL at the time point indicated.); Cell viability at time point in d-U937 cells 24 h [1]: −ve (−ve and +ve indicate that the value is below and above respectively, the no significant effect threshold, defined as 30% inhibition at 1 μg/mL at the time point indicated.); β-catenin inductive effect relative to the effect produced by the Reference Compound at 1 μg/mL ([4]; test concentration of 10 μg/mL, found to be negative): less than 15%; IC50 [2]: 10 nM
C#Cc1cc(Nc2nccc(Oc3ccc(NC(=O)Nc4cc(C(C)C)nn4-c4ccc(C)cc4)c(Cl)c3Cl)n2)cc(C(=O)NCCN2CCOCC2)c1 [Example 87, 3-((4-(2,3-Dichloro-4-(3-(3-isopropyl-1-(p-tolyl)-1H-pyrazol-5-yl)ureido)-phenoxy)pyrimidin-2-yl)amino)-5-ethynyl-N-(2-morpholinoethyl)benzamide]	408			
CCC(=O)O[C@]1(C(=O)SCF)[C@H](C)C[C@H]2[C@@H]3C[C@H](F)C4=CC(=O)C=C[C@]4(C)[C@@]3(F)[C@@H](O)C[C@@]21C [fluticasone propionate, reference compound]				inhibition of neutrophil or macrophage accumulation into airways (mice): did not inhibit; inhibition of LPS-induced neutrophil accumulation (Balb/c mice): > 80%
